# Reference: patent US11730712B2, “Functionalized long-chain hydrocarbon mono- and di-carboxylic acids and derivatives thereof, and their use for the prevention or treatment of disease” (ESPERVITA THERAPEUTICS, INC., priority 2021, dated 2023)
# Test system: mouse primary hepatocytes
# Assay: 14C-acetate incorporation into total lipids in primary mouse hepatocytes
# Format: cell-based
# Details: 4-hour period; for IC50: Hepatocyte, read-out: IC50 in μM, inhibition of 14C-acetate incorporation in total lipids
# Procedure: After perfusion, collagen digested liver cells were re-suspended in William's E media (11 mM glucose) (Gibco) supplemented with 10% fetal bovine serum (FBS) (Gibco), 2 mM L-glutamine (Gibco) and 1% Antibiotic-Antimycotic (Gibco) mixture and seeded in white opaque 96-well plates. On the following day, the cells were serum-starved for 2 hours, then treated with 0 μM, 0.1 μM, 0.3 μM, 0.5 μM, 1 μM, 3 μM, 10 μM, and 100 μM of Compound I-32, Compound I-1, or Compound III-1 or Reference Compound (e.g., Compounds A-E and bempedoic acid) in the presence of ^14C-Acetate (1 μCi/ml, PerkinElmer). Each of Compound I-32, Compound I-1, Compound III-1, and Reference Compound was solubilized in 100% DMSO to a final concentration of 100 mM stock solution. In the experimental condition, the stock solution was diluted in serum free media (William's E media (11 mM glucose) (Gibco), 2 mM L-glutamine (Gibco) and 1% Anti biotic-Antimycotic) to yield the desired concentration of each compound. […] After 4 hours of treatment, the plates were washed two times with PBS (×1) and 100 μL microscint fluid (Microscint O, part #601361) was added in each well. Plates were wrapped with aluminum foil and were shaken at 250 rpm for 2 h. After 2 h of shaking, ^14C incorporation into lipid was determined by liquid scintillation counting using a TopCount NXT Microplate Scintillation and Luminescence Counter (Perkin Elmer).
# The effects of Compound I-32. Compound I-1, and Compound III-1 on mouse primary hepatocyte lipogenesis are represented in Table 1. Each Compound was assayed at a concentration of 0 μM (vehicle control), 0.1 μM, 0.3 μM, 0.5 μM, 1 μM, 3 μM, 10 μM, and 100 μM, unless otherwise noted. Statistically significant inhibition was determined by one-way ANOVA and Dennett's post hoc test where appropriate. […] IC50 values were determined by nonlinear regression. All statistical analyses were carried out using GraphPad Prism 8 software. A p-value of less than or equal 0.05 was considered significant.
SMILES,IC50 [µM],"% change from control at 100 μM ± SEM(n), 14C-acetate incorporation in total lipids"
CC(C)(CCCCCCCCCCCC(C)(C)C(=O)O)C(=O)O [F],< 0.3,–
"CC(C)(CCCc1ccc(CCCC(C)(C)C(=O)O)cc1)C(=O)O [III-1, 5,5′-(1,4-phenylene)bis(2,2-dimethylpentanoic acid)]",27.7,–
CC(C)(CCCCCC(=O)CCCCCC(C)(C)C(=O)O)C(=O)O [C],0.46,–
"CC(C)(CCCCCC(O)CCCCCC(C)(C)C(=O)O)C(=O)O [BA, Bempedoic acid]",0.68,–
"CC(C)(CCCc1ccccc1CCCC(C)(C)C(=O)O)C(=O)O [Compound I-61, 5-[2-(4-Carboxy-4-methylpentyl)-phenyl]-2,2-dimethylpentanoic acid]",–,+44 ± 8.1 (n = 4) %
CC(C)(CCCCCCC(=O)CCCCCCC(C)(C)C(=O)O)C(=O)O [E],0.35,–
CC(C)(CO)CCCCC(=O)CCCCC(C)(C)CO [A],73.2,–
CC(C)(CCCCC(=O)CCCCC(C)(C)C(=O)O)C(=O)O [B],25.6,−69 ± 2.3 (n = 4) %
CC(C)(CO)CCCCCC(=O)CCCCCC(C)(C)CO [D],5.39,–
